According to ChEMBL document CHEMBL5385845, “Novel coumarin aminophosphonates as potential multitargeting antibacterial agents against Staphylococcus aureus” (Eur J Med Chem, 2023):
In brackets after ≈: the same amount, converted by molar mass.

Experiments:
Format in all cases: functional
[1] = test system: Escherichia coli; experiment: Antibacterial activity against Escherichia coli assessed as inhibition of bacterial growth
[2] = test system: Pseudomonas aeruginosa; experiment: Antibacterial activity against Pseudomonas aeruginosa ATCC 27853 assessed as inhibition of bacterial growth
[3] = test system: Acinetobacter baumannii; experiment: Antibacterial activity against Acinetobacter baumannii assessed as inhibition of bacterial growth
[4] = test system: Staphylococcus aureus; experiment: Antibacterial activity against methicillin resistant Staphylococcus aureus N315 assessed as inhibition of bacterial growth
[5] = test system: Escherichia coli; experiment: Antibacterial activity against Escherichia coli ATCC 25922 assessed as inhibition of bacterial growth
[6] = test system: Staphylococcus aureus; experiment: Antibacterial activity against Staphylococcus aureus ATCC 29213 assessed as inhibition of bacterial growth
[7] = test system: Enterococcus faecalis; experiment: Antibacterial activity against Enterococcus faecalis assessed as inhibition of bacterial growth
[8] = test system: Staphylococcus aureus; experiment: Antibacterial activity against Staphylococcus aureus ATCC 25923 assessed as inhibition of bacterial growth
[9] = test system: Staphylococcus aureus; experiment: Antibacterial activity against Staphylococcus aureus assessed as inhibition of bacterial growth
[10] = test system: Pseudomonas aeruginosa; experiment: Antibacterial activity against Pseudomonas aeruginosa assessed as inhibition of bacterial growth
[11] = test system: Klebsiella pneumoniae; experiment: Antibacterial activity against Klebsiella pneumoniae assessed as inhibition of bacterial growth
[12] = test system: Escherichia coli; experiment: Synergistic antibacterial activity against Escherichia coli ATCC 25922 assessed as inhibition of bacterial growth in presence of compound 6f
[13] = test system: Staphylococcus aureus; experiment: Synergistic antibacterial activity against Staphylococcus aureus assessed as inhibition of bacterial growth in presence of compound 6f
[14] = test system: Staphylococcus aureus; experiment: Induction of drug resistance in Staphylococcus aureus assessed as fold increase in MIC measured for 23 passages

Row | Compound | MIC [1] [µg/mL] | MIC [2] [µg/mL] | MIC [3] [µg/mL] | MIC [4] [µg/mL] | MIC [5] [µg/mL] | MIC [6] [µg/mL] | MIC [7] [µg/mL] | MIC [8] [µg/mL] | MIC [9] [µg/mL] | MIC [10] [µg/mL] | MIC [11] [µg/mL] | MIC [12] [µg/mL] | MIC [13] [µg/mL] | fold change (FC) [14]
1 | CCCCc1nc(Cl)c(C(Nc2ccc3c(C)cc(=O)oc3c2)P(=O)(OCC)OCC)n1Cc1ccccc1F (stereo not drawn) | 32 (≈ 54.2 µM) | 64 (≈ 108 µM) | 32 (≈ 54.2 µM) | 64 (≈ 108 µM) | 256 (≈ 434 µM) | 32 (≈ 54.2 µM) | 128 (≈ 217 µM) | 64 (≈ 108 µM) | 128 (≈ 217 µM) | 256 (≈ 434 µM) | 128 (≈ 217 µM) | – | – | –
2 | CCOP(=O)(OCC)C(Nc1ccc2c(C)cc(=O)oc2c1)c1nccs1 (stereo not drawn) | 128 (≈ 313 µM) | 8 (≈ 19.6 µM) | 32 (≈ 78.4 µM) | 64 (≈ 157 µM) | 64 (≈ 157 µM) | 32 (≈ 78.4 µM) | 128 (≈ 313 µM) | 128 (≈ 313 µM) | 16 (≈ 39.2 µM) | 64 (≈ 157 µM) | 256 (≈ 627 µM) | – | – | –
3 | CCCCc1nc(Cl)c(C(Nc2ccc3c(C)cc(=O)oc3c2)P(=O)(OCC)OCC)[nH]1 (stereo not drawn) | 32 (≈ 66.4 µM) | 256 (≈ 531 µM) | 128 (≈ 266 µM) | 128 (≈ 266 µM) | 64 (≈ 133 µM) | 256 (≈ 531 µM) | 64 (≈ 133 µM) | 16 (≈ 33.2 µM) | 32 (≈ 66.4 µM) | 64 (≈ 133 µM) | 128 (≈ 266 µM) | – | – | –
4 | CCCCc1nc(Cl)c(C(Nc2ccc3c(C)cc(=O)oc3c2)P(=O)(OCC)OCC)n1Cc1ccc(Cl)cc1Cl (stereo not drawn) | 64 (≈ 99.9 µM) | 256 (≈ 399 µM) | 128 (≈ 200 µM) | 128 (≈ 200 µM) | 128 (≈ 200 µM) | 128 (≈ 200 µM) | 128 (≈ 200 µM) | 32 (≈ 49.9 µM) | 64 (≈ 99.9 µM) | 64 (≈ 99.9 µM) | 128 (≈ 200 µM) | – | – | –
5 | CCOP(=O)(OCC)C(Nc1ccc2c(C)cc(=O)oc2c1)c1ccccc1F (stereo not drawn) | 128 (≈ 305 µM) | 32 (≈ 76.3 µM) | 64 (≈ 153 µM) | 64 (≈ 153 µM) | 64 (≈ 153 µM) | 64 (≈ 153 µM) | 64 (≈ 153 µM) | 64 (≈ 153 µM) | 16 (≈ 38.2 µM) | 256 (≈ 610 µM) | 128 (≈ 305 µM) | – | – | –
6 | CCOP(=O)(OCC)C(Nc1ccc2c(C)cc(=O)oc2c1)c1cc(O)c2c(c1)C(=O)c1cccc(O)c1C2=O (stereo not drawn) | 8 (≈ 14.2 µM) | 8 (≈ 14.2 µM) | 16 (≈ 28.4 µM) | 4 (≈ 7.1 µM) | 4 (≈ 7.1 µM) | 8 (≈ 14.2 µM) | 32 (≈ 56.8 µM) | 4 (≈ 7.1 µM) | 8 (≈ 14.2 µM) | 8 (≈ 14.2 µM) | 32 (≈ 56.8 µM) | – | – | –
7 | CCn1cc(C(=O)O)c(=O)c2cc(F)c(N3CCNCC3)cc21 [NORFLOXACIN] | 8 (≈ 25.1 µM) | 4 (≈ 12.5 µM) | 8 (≈ 25.1 µM) | 4 (≈ 12.5 µM) | 16 (≈ 50.1 µM) | 16 (≈ 50.1 µM) | 8 (≈ 25.1 µM) | 8 (≈ 25.1 µM) | 16 (≈ 50.1 µM) | 4 (≈ 12.5 µM) | 1 (≈ 3.13 µM) | 8 | 4 | 32
8 | CCOP(=O)(OCC)C(Nc1ccc2c(C)cc(=O)oc2c1)c1ccc(C(F)(F)F)cc1 (stereo not drawn) | 128 (≈ 273 µM) | 64 (≈ 136 µM) | 128 (≈ 273 µM) | 256 (≈ 545 µM) | 64 (≈ 136 µM) | 256 (≈ 545 µM) | 128 (≈ 273 µM) | 256 (≈ 545 µM) | 256 (≈ 545 µM) | 64 (≈ 136 µM) | 128 (≈ 273 µM) | – | – | –
9 | CCOP(=O)(OCC)C(Nc1ccc2c(C)c(Cl)c(=O)oc2c1)c1cccc(O)c1 (stereo not drawn) | 128 (≈ 283 µM) | 128 (≈ 283 µM) | 32 (≈ 70.8 µM) | 32 (≈ 70.8 µM) | 16 (≈ 35.4 µM) | 32 (≈ 70.8 µM) | 64 (≈ 142 µM) | 32 (≈ 70.8 µM) | 16 (≈ 35.4 µM) | 64 (≈ 142 µM) | 128 (≈ 283 µM) | – | – | –
10 | CCOP(=O)(OCC)C(Nc1ccc2c(C)cc(=O)oc2c1)c1ccc(Cl)cc1Cl (stereo not drawn) | 32 (≈ 68 µM) | 64 (≈ 136 µM) | 64 (≈ 136 µM) | 128 (≈ 272 µM) | 128 (≈ 272 µM) | 128 (≈ 272 µM) | 64 (≈ 136 µM) | 128 (≈ 272 µM) | 128 (≈ 272 µM) | 128 (≈ 272 µM) | 64 (≈ 136 µM) | – | – | –
11 | CCCCc1nc(Cl)c(C(Nc2ccc3c(C)cc(=O)oc3c2)P(=O)(OCC)OCC)n1Cc1ccc(F)cc1F (stereo not drawn) | 128 (≈ 211 µM) | 128 (≈ 211 µM) | 64 (≈ 105 µM) | 64 (≈ 105 µM) | 128 (≈ 211 µM) | 64 (≈ 105 µM) | 128 (≈ 211 µM) | 128 (≈ 211 µM) | 32 (≈ 52.6 µM) | 256 (≈ 421 µM) | 128 (≈ 211 µM) | – | – | –
12 | CCOP(=O)(OCC)C(Nc1ccc2c(C)c(C)c(=O)oc2c1)c1cccc(O)c1 (stereo not drawn) | 32 (≈ 74.2 µM) | 16 (≈ 37.1 µM) | 256 (≈ 593 µM) | 128 (≈ 297 µM) | 64 (≈ 148 µM) | 16 (≈ 37.1 µM) | 32 (≈ 74.2 µM) | 64 (≈ 148 µM) | 32 (≈ 74.2 µM) | 128 (≈ 297 µM) | 64 (≈ 148 µM) | – | – | –
13 | CCOP(=O)(OCC)C(Nc1ccc2c(C)cc(=O)oc2c1)c1ccc(O)c(Br)c1 (stereo not drawn) | 64 (≈ 129 µM) | 64 (≈ 129 µM) | 128 (≈ 258 µM) | 256 (≈ 516 µM) | 128 (≈ 258 µM) | 128 (≈ 258 µM) | 128 (≈ 258 µM) | 128 (≈ 258 µM) | 64 (≈ 129 µM) | 32 (≈ 64.5 µM) | 128 (≈ 258 µM) | – | – | –
14 | CCOP(=O)(OCC)C(Nc1ccc2c(C)cc(=O)oc2c1)c1cccc(Cl)c1O (stereo not drawn) | 128 (≈ 283 µM) | 64 (≈ 142 µM) | 128 (≈ 283 µM) | 64 (≈ 142 µM) | 64 (≈ 142 µM) | 128 (≈ 283 µM) | 128 (≈ 283 µM) | 64 (≈ 142 µM) | 32 (≈ 70.8 µM) | 16 (≈ 35.4 µM) | 128 (≈ 283 µM) | – | – | –
15 | CCOP(=O)(OCC)C(Nc1ccc2c(C)cc(=O)oc2c1)c1ccc(O)c([N+](=O)[O-])c1 (stereo not drawn) | 64 (≈ 138 µM) | 128 (≈ 277 µM) | 64 (≈ 138 µM) | 256 (≈ 554 µM) | 128 (≈ 277 µM) | 32 (≈ 69.2 µM) | 64 (≈ 138 µM) | 64 (≈ 138 µM) | 32 (≈ 69.2 µM) | 32 (≈ 69.2 µM) | 128 (≈ 277 µM) | – | – | –
